Data published in publication PMC8190279, “Spatiotemporal imaging and pharmacokinetics of fluorescent compounds in zebrafish eleuthero-embryos after different routes of administration” (Scientific Reports, 2021).

What was measured:
[1] = tested on: 3 dpf zebrafish eleuthero-embryos; experiment: Spatiotemporal fluorescence imaging after immersion, microinjection (PC, IP, IY) or combination; type: in vivo, Danio rerio
Protocol: We then determined the spatiotemporal distribution of the fluorescent compounds. The eleuthero-embryos were exposed to the dyes by immersion or microinjection in the pericardial cavity (PC), intraperitoneally (IP) and in the yolk sac (IY) for 48 h starting from 3 dpf on, i.e. after hatching, thus avoiding the presence of the chorion that has been reported as a potential barrier for the absorption of compounds[21],[27].
At specific time periods after treatment, the eleuthero-embryos were immobilized by hypothermia and fluorescent microscope pictures were taken.
3 dpf zebrafish eleuthero-embryos wildtype AB (n = 10 per compound) randomly selected were immersed using 6-well-plates (5 mL per well) of Danieau’s medium with a final DMSO concentration of 0.1% (v/v), containing the compounds at a concentration of 10 µM. Vehicle-treated control eleuthero-embryos were exposed to Danieau’s medium supplemented with 0.1% v/v DMSO.
3 dpf zebrafish eleuthero-embryos wildtype AB (n = 10 per compound) randomly selected were immobilized by cooling to 4 °C and positioned on 1% (w/v) agarose plates at room temperature. All compounds were microinjected using glass needles fitted to a micromanipulator (MM-33) connected to a gas pressure microinjector (Eppendorf Femtojet set - AG 22331 Hamburg). Glass capillaries (W/FIL 1.0MM 4 in TW 100F-4) were pulled (Sutter Instrument CO. Model P-87 Cat N B100-58-15 Filament: FB330B – FB320B) by using program 5 (Heat 829, Pull 158, Vel 100, Time 150). Needles were filled with compounds dissolved in vehicle (DMSO/saline (1:1)). Microinjections were performed into the pericardial cavity (PC)[47], into the yolk sac (IY)[35], or into the peritoneal cavity (IP) at a volume of 1 nL and a dose of 2 mg/kg. For the intraperitoneal microinjection, the eleuthero-embryos were positioned in lateral right recumbence under a dissecting microscope. By using a micromanipulator, the needle was inserted posteriorly and ventrolateral to the swim bladder in the peritoneal cavity. Afterwards the eleuthero-embryos were transferred to 6-well plates. Control eleuthero-embryos were exposed to vehicle only.
3 dpf zebrafish eleuthero-embryos wildtype AB (n = 10 per compound) randomly selected were immobilized and positioned on 1% (w/v) agarose plates. All compounds were microinjected using glass needles, as previously described into the PC cavity. Afterwards, the larvae were selected and transferred to a 6-well-plate, into its corresponding compound at 10 µM.
The thus-treated eleuthero-embryos were kept in the incubator at 28.5 °C (in darkness) and taken out shortly at defined time points (15’, 1 h, 3 h, 6 h, 24 h and 48 h) for image analysis.
Eleuthero-embryos were immobilized by hypothermia, rinsed three times with Danieau’s medium, and positioned latero-lateral (right lateral recumbency) in a drop of agarose (0.1%). To acquire images, a Leica MZ10F fluorescent stereomicroscope with a 4.0 × planapochromatic objective (10447243) was used, equipped with a Digital Color Camera Leica DFC310 FX (Software LAS 4.13). Filter sets were GFP 10446222 in case of compound FAMA, dSRED 10447079 in case of S-CY3A, CY3A and TAMRA, and CY5 10446366 in case of S-CY5.5A and S-CY5A. After manual delineation of the whole body (WB) contours of the zebrafish eleuthero-embryos using MetaMorph (Microscopy Automation & Image Analysis Software V.7.8.00), the fluorescence in the selected area was quantified as integrated fluorescence intensity (RFU) that adds up all fluorescence intensity values of the individual pixels. In case of the combination treatment the same correction factor for exposure time from the camera setting was applied in the case of FAMA and TAMRA, to avoid saturation of the images (Supplementary information. Figure S1)[48]. The selected images shown in the Figs. 1, 2, 3, 4, 5, 6 and 7 were arranged using MS PowerPoint (Microsoft Corporation, Seattle, USA) and the open-source GIMP (version 2.10.24 www.gimp.org 2021) software. […]

[2] = tested on: 3 dpf zebrafish eleuthero-embryos; experiment: Whole-body fluorescence quantification and 1-compartment PK modelling; type: in vivo, Danio rerio; conditions: for ke (total elimination rate constant): 1-compartment model fitted to all routes (immersion 10 µM, PC/IP 2 mg/kg, combination), 0-48 h; for Q (passive exchange with the medium) / t1/2 (elimination half-life, ln(2)/ke): 1-compartment model, zebrafish eleuthero-embryo; for Comparison of passive exchange with the medium (Q) among compounds: ranking in words
Excerpt: We then quantified the relative amount of compound present in the zebrafish eleuthero-embryos by assessing the integrated fluorescence intensity of delineated whole-body contours present in the fluorescence images (Figs. 1, 2, 3, 4, 5, 6, 7).
The total measured fluorescence was proportional to total amount of compound present in the animal, as described by Eq. (1). RFUT denotes the sum of fluorescence intensity in the overall image, A denotes the amount of drug in the zebrafish, and FLUOR is a constant denoting the compound-specific fluorescence quantum yield.1 RFUT=FLUOR∗A
Simplifying by substitution of ke=Q+CL/V :3 dA/dt=-ke∗A+QM
Next, data fitting was performed with the following mathematical model:4 At=Dose∗e^-ket+MQ/ke(1-e^-ket) with Dose the injected dose (mg/kg), M the concentration in the medium (mg/L), Q the passive exchange with the medium (L/h) and ke the total elimination rate constant (h^−1). When administering the compound through immersion, the injected dose is 0 mg/kg. When injecting the compound, the concentration in medium is 0. This model was fitted to all available data using non-linear regression in R version 4.0.3.
Residual error plots were used to identify observations with poor fit.
The designed model was optimized by a non-linear least squares modelling, using Gauss–Newton algorithms under the method of iterative fashion, with R version 4.0.3, using stats::nls[50].

[3] = Experimental lipophilicity (LogD), shake-flask method with UHPLC; conditions: n-octanol / Danieau's solution, 10 µM compound
Protocol: Briefly, 10 µM of compound was shaken in a mixture of two mobile phases, n-octanol and Danieau’s solution (eleuthero-embryo medium) and analysed with UHPLC.
The lipophilicity of the fluorescent compounds was determined following the EPA guideline OPPTS 830.7550 Partition coefficient (shake flask method)[46] using Danieau’s solution and n-octanol as the two immiscible phases. Analyses were performed using an Agilent Infinity 1290 UHPLC system (Agilent Technologies, Waldbronn, Germany) consisting of an autosampler, quaternary pump and DAD-detector, operated with Open Lab software (version C.01.10, Agilent Technologies). […] All compounds were detected and quantified at 390 nm. For the quantification of the compounds, calibration samples were made in 50:50 ACN:MilliQ water for the compounds analysed in RPLC and 95:5 ACN:MilliQ water for compounds analysed in HILIC. […] The variation (calculated as the relative standard deviation, %RSD) for 3 injections was always below 10% (for all considered concentrations) and R^2 values of the calibration curves were all above 0.998. All calculations concerning the evaluation of the recorded data were made in MS Excel (Microsoft Corporation, Seattle, USA). […]

Compound: C#CCNC(=O)c1ccc(-c2c3ccc(=[N+](C)C)cc-3oc3cc(N(C)C)ccc23)c(C(=O)[O-])c1 (single isomer, unassigned) [TAMRA, Tamra alkyne 5-isomer]
- Intra-fish distribution after pericardial (PC) microinjection ([1]; PC microinjection 2 mg/kg): rapidly distributed to the vasculature
- Level and intra-body fluorescence distribution at 48 h, combination (immersion + PC) compared with PC microinjection ([1]; immersion 10 µM + PC 2 mg/kg, 48 h): altered
- Uptake after immersion (fluorescence imaging) ([1]; immersion 10 µM, 0-48 h from 3 dpf): gradually taken up over time
- ke (total elimination rate constant) [2]: 0.052 h⁻¹
- Q (passive exchange with the medium) [2]: 1.45 L/h × 10^−9
- t1/2 (elimination half-life, ln(2)/ke) [2]: 13.35 h
- LogD [3]: 0.46

Compound: C#CCNC(=O)CCCCCN1C(=CC=CC2=[N+](C)c3ccccc3C2(C)C)C(C)(C)c2ccccc21.[Cl-] [CY3A, Cyanine3 alkyne]
- Level and intra-body fluorescence distribution at 48 h, combination (immersion + PC) compared with PC microinjection ([1]; in vivo): altered
- ke (total elimination rate constant) [2]: 0.049 h⁻¹
- Q (passive exchange with the medium) [2]: 8.37 L/h × 10^−9
- t1/2 (elimination half-life, ln(2)/ke) [2]: 13.92 h
- Additional effect of immersion route on intrabody exposure in combination treatment (RC3h) ([2]; 3 h exposure, immersion 10 µM + PC 2 mg/kg): to a limited degree
- Comparison of passive exchange with the medium (Q) among compounds [2]: taken up the fastest
- LogD [3]: 1.73

Compound: C#CCNC(=O)c1ccc2c(c1)C(=O)OC21c2ccc(O)cc2Oc2cc(O)ccc21 [FAMA, FAM alkyne, 5-isomer]
- Intra-fish distribution after pericardial (PC) microinjection ([1]; in vivo): rapidly distributed to the vasculature
- Q (passive exchange with the medium) [2]: 1.71 L/h × 10^−9
- t1/2 (elimination half-life, ln(2)/ke) [2]: 57.41 h

Compound: C#CCNC(=O)CCCCCN1/C(=C/C=C/C=C/C2=[N+](C)c3ccc4c(S(=O)(=O)[O-])cc(S(=O)(=O)[O-])cc4c3C2(C)C)C(C)(C)c2c1ccc1c(S(=O)(=O)[O-])cc(S(=O)(=O)[O-])cc21.[K+].[K+].[K+] [S-CY5.5A, Sulfo-cyanine 5.5 alkyne]
- Intra-fish distribution after pericardial (PC) microinjection ([1]; in vivo): rapidly distributed to the vasculature
- ke (total elimination rate constant) [2]: 0.023 h⁻¹
- Q (passive exchange with the medium) [2]: 0.34 L/h × 10^−9
- t1/2 (elimination half-life, ln(2)/ke) [2]: 30.26 h
- Comparison of passive exchange with the medium (Q) among compounds [2]: slowest one to be exchanged

Compound: Sulfo-cyanine 3 alkyne [S-CY3A]
- Intra-fish distribution after pericardial (PC) microinjection ([1]; in vivo): rapidly distributed to the vasculature
- ke (total elimination rate constant) [2]: 0.012 h⁻¹
- Q (passive exchange with the medium) [2]: 0.23 L/h × 10^−9
- t1/2 (elimination half-life, ln(2)/ke) [2]: 57.40 h

Compound: Sulfo-cyanine 5 alkyne [S-CY5A]
- Intra-fish distribution after pericardial (PC) microinjection ([1]; in vivo): rapidly distributed to the vasculature
- Level and intra-body fluorescence distribution at 48 h, combination (immersion + PC) compared with PC microinjection ([1]; in vivo): altered
- ke (total elimination rate constant) [2]: 0.014 h⁻¹
- Q (passive exchange with the medium) [2]: 1.61 L/h × 10^−9
- t1/2 (elimination half-life, ln(2)/ke) [2]: 50.41 h
